The record followed here is patent US8343983B2, “Substituted pyrazolo-pyrimidine compounds” (ArQule, Inc., priority 2009, dated 2013).

This assay deals with cancer cells. Description: MTS assay: inhibition of cell growth (formazan absorbance at 492 nm after 72 hours with test compound). Type of assay: cell-based. To be noted: inhibition class. In a few lines: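 DMEM with 1% FBS; cells seeded at 3000/well and grown 18 h at 37 °C, then exposed to compound for 72 h and to MTS/PMS for 4 h. IC50 is the concentration giving a 50% absorbance drop; grades are % inhibition bands.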

Where [1] appears, read: Homo sapiens, DLD-1 cells, read-out: DLD-1, MTS 72 hours at 10 uM.
Where [2] appears, read: Homo sapiens, KATO III cells, read-out: KATO III, MTS 72 hours at 10 uM.
Where [3] appears, read: Homo sapiens, MDA-MB-231 cells, read-out: MDA-MB-231, MTS 72 hours at 10 uM.
Where [4] appears, read: Homo sapiens, NCI-H1299 cells, read-out: NCI-H1299, MTS 72 hours at 10 uM.
[5] abbreviates: Homo sapiens, PC-3 cells, read-out: PC-3, MTS 72 hours at 10 uM.
The mark [6] stands for this setting: PACA-2 cells, read-out: PACA-2, MTS 72 hours at 10 uM.

Each structure is given as a SMILES string. Read-outs that look alike come from different tables or passages of the source.

In the case of `Fc1cccc(CCNc2nc3c4c(n[nH]c4n2)CCN3Cc2ccccc2)c1` [Compound 94, 6-benzyl-N-[2-(3-fluorophenyl)ethyl]-2,6,7,8-tetrahydro-1,2,3,5,6-pentaazaacenaphthylen-4-amine], the inhibition at 10 µM reads like this: under setting [1], below 50%; under setting [2], below 50%; under setting [3], below 50%; under setting [4], below 50%; under setting [5], below 50%; under setting [6], below 50%.
Turning to `c1ccc(CN2CCc3n[nH]c4nc(N5CCN(c6ccccn6)CC5)nc2c34)cc1` [Compound 95, 6-benzyl-4-(4-pyridin-2-ylpiperazin-1-yl)-2,6,7,8-tetrahydro-1,2,3,5,6-pentaazaacenaphthylene], the inhibition at 10 µM is, setting by setting: under setting [1], below 50%; under setting [2], below 50%; under setting [3], below 50%; under setting [4], below 50%; under setting [5], below 50%; under setting [6], below 50%.
Regarding `C[C@@H]1CN(c2nc3c4c(n[nH]c4n2)CCN3Cc2ccccc2)C[C@H](C)O1` [Compound 96, 6-benzyl-4-[(2R,6S)-2,6-dimethylmorpholin-4-yl]-2,6,7,8-tetrahydro-1,2,3,5,6-pentaazaacenaphthylene], the inhibition at 10 µM is, setting by setting: under setting [1], below 50%; under setting [2], above 79%; under setting [3], above 79%; under setting [4], below 50%; under setting [5], above 79%; under setting [6], below 50%.
Consider `Brc1ccc(CCNc2nc3c4c(n[nH]c4n2)CCN3Cc2ccccc2)cc1` [Compound 97, 6-benzyl-N-[2-(4-bromophenyl)ethyl]-2,6,7,8-tetrahydro-1,2,3,5,6-pentaazaacenaphthylen-4-amine], for which the inhibition at 10 µM is, setting by setting: under setting [1], 50 to 79%; under setting [2], below 50%; under setting [3], below 50%; under setting [4], 50 to 79%; under setting [5], below 50%; under setting [6], below 50%.
`COc1ccc2c(CCNc3nc4c5c(n[nH]c5n3)CCN4Cc3ccccc3)c[nH]c2c1` [Compound 98, 6-benzyl-N-[2-(6-methoxy-1H-indol-3-yl)ethyl]-2,6,7,8-tetrahydro-1,2,3,5,6-pentaazaacenaphthylen-4-amine]: the inhibition at 10 µM was below 50% under setting [1]; 50 to 79% under setting [2]; 50 to 79% under setting [3]; 50 to 79% under setting [4]; above 79% under setting [5]; below 50% under setting [6].
`COc1ccc(CN2CCc3n[nH]c4nc(SC)nc2c34)cc1` [Compound 99, 6-(4-methoxybenzyl)-4-(methylsulfanyl)-2,6,7,8-tetrahydro-1,2,3,5,6-pentaazaacenaphthylene]: the inhibition at 10 µM was below 50% under setting [1]; below 50% under setting [2]; below 50% under setting [3]; below 50% under setting [4]; below 50% under setting [5]; below 50% under setting [6].
Regarding `COc1ccc(CN2CCc3n[nH]c4nc(NCc5ccccc5)nc2c34)cc1` [Compound 100, N-benzyl-6-(4-methoxybenzyl)-2,6,7,8-tetrahydro-1,2,3,5,6-pentaazaacenaphthylen-4-amine], the inhibition at 10 µM is, setting by setting: under setting [1], below 50%; under setting [2], below 50%; under setting [3], below 50%; under setting [4], below 50%; under setting [5], below 50%; under setting [6], below 50%.
Consider `c1ccc(CNc2nc3c4c(n[nH]c4n2)CCN3)cc1` [Compound 101, N-benzyl-2,6,7,8-tetrahydro-1,2,3,5,6-pentaazaacenaphthylen-4-amine], for which the inhibition at 10 µM is 50 to 79% under setting [1]; below 50% under setting [2]; below 50% under setting [3]; below 50% under setting [4]; 50 to 79% under setting [5]; above 79% under setting [6].
With `COc1ccc(CN2CCc3n[nH]c4nc(NCc5cccnc5)nc2c34)cc1` [Compound 102, 6-(4-methoxybenzyl)-N-(pyridin-3-ylmethyl)-2,6,7,8-tetrahydro-1,2,3,5,6-pentaazaacenaphthylen-4-amine], the inhibition at 10 µM was above 79% under setting [1]; above 79% under setting [2]; above 79% under setting [3]; above 79% under setting [4]; above 79% under setting [5]; above 79% under setting [6].
As to `COc1ccc(CN2CCc3n[nH]c4nc(N5CCN(c6ccncc6)CC5)nc2c34)cc1` [Compound 103, 6-(4-methoxybenzyl)-4-(4-pyridin-4-ylpiperazin-1-yl)-2,6,7,8-tetrahydro-1,2,3,5,6-pentaazaacenaphthylene], the inhibition at 10 µM runs as follows: under setting [1], above 79%; under setting [2], above 79%; under setting [3], above 79%; under setting [4], 50 to 79%; under setting [5], above 79%; under setting [6], above 79%.
Consider `COc1ccc(CN2CCc3n[nH]c4nc(NCCc5c[nH]c6ccccc56)nc2c34)cc1` [Compound 104, N-[2-(1H-indol-3-yl)ethyl]-6-(4-methoxybenzyl)-2,6,7,8-tetrahydro-1,2,3,5,6-pentaazaacenaphthylen-4-amine], for which the inhibition at 10 µM is, setting by setting: under setting [1], 50 to 79%; under setting [2], 50 to 79%; under setting [3], below 50%; under setting [4], 50 to 79%; under setting [5], below 50%; under setting [6], below 50%.
As to `COc1ccc(CN2CCc3n[nH]c4nc(NCCN5CCOCC5)nc2c34)cc1` [Compound 105, 6-(4-methoxybenzyl)-N-(2-morpholin-4-ylethyl)-2,6,7,8-tetrahydro-1,2,3,5,6-pentaazaacenaphthylen-4-amine], the inhibition at 10 µM is above 79% under setting [1]; above 79% under setting [2]; above 79% under setting [3]; above 79% under setting [4]; above 79% under setting [5]; above 79% under setting [6].
Take `COc1ccc(CN2CCc3n[nH]c4nc(NC5Cc6ccccc6C5)nc2c34)cc1` [Compound 106, N-(2,3-dihydro-1H-inden-2-yl)-6-(4-methoxybenzyl)-2,6,7,8-tetrahydro-1,2,3,5,6-pentaazaacenaphthylen-4-amine]: the inhibition at 10 µM was above 79% under setting [1]; above 79% under setting [2]; below 50% under setting [3]; 50 to 79% under setting [4]; below 50% under setting [5]; 50 to 79% under setting [6].
On to `COc1ccc(CN2CCc3n[nH]c4nc(NC5CCCCC5)nc2c34)cc1` [Compound 107, N-cyclohexyl-6-(4-methoxybenzyl)-2,6,7,8-tetrahydro-1,2,3,5,6-pentaazaacenaphthylen-4-amine], for which the inhibition at 10 µM was below 50% under setting [1]; below 50% under setting [2]; below 50% under setting [3]; below 50% under setting [4]; below 50% under setting [5]; below 50% under setting [6].
Take `COc1ccc(CN2CCc3n[nH]c4nc(NCCOc5ccccc5)nc2c34)cc1` [Compound 108, 6-(4-methoxybenzyl)-N-(2-phenoxyethyl)-2,6,7,8-tetrahydro-1,2,3,5,6-pentaazaacenaphthylen-4-amine]: the inhibition at 10 µM under setting [1] lay within 50 to 79%; the inhibition at 10 µM under setting [2] was below 50%; the inhibition at 10 µM under setting [3] was below 50%; the inhibition at 10 µM under setting [4] was below 50%; the inhibition at 10 µM under setting [5] is below 50%; the inhibition at 10 µM under setting [6] was above 79%.
Turning to `COc1ccc(CN2CCc3n[nH]c4nc(NCCc5ccc(F)cc5)nc2c34)cc1` [Compound 109, N-[2-(4-fluorophenyl)ethyl]-6-(4-methoxybenzyl)-2,6,7,8-tetrahydro-1,2,3,5,6-pentaazaacenaphthylen-4-amine], the inhibition at 10 µM by setting is: under setting [1], 50 to 79%; under setting [2], 50 to 79%; under setting [3], below 50%; under setting [4], 50 to 79%; under setting [5], below 50%; under setting [6], 50 to 79%.
On to `COc1ccc(CN2CCc3n[nH]c4nc(N5CCOCC5)nc2c34)cc1` [Compound 110, 6-(4-methoxybenzyl)-4-morpholin-4-yl-2,6,7,8-tetrahydro-1,2,3,5,6-pentaazaacenaphthylene], for which the inhibition at 10 µM is below 50% under setting [1]; below 50% under setting [2]; below 50% under setting [3]; below 50% under setting [4]; below 50% under setting [5]; below 50% under setting [6].
For the molecule `COc1ccc(CN2CCc3n[nH]c4nc(NC5CCN(C)CC5)nc2c34)cc1` [Compound 111, 6-(4-methoxybenzyl)-N-(1-methylpiperidin-4-yl)-2,6,7,8-tetrahydro-1,2,3,5,6-pentaazaacenaphthylen-4-amine], the inhibition at 10 µM is, setting by setting: under setting [1], below 50%; under setting [2], below 50%; under setting [3], below 50%; under setting [4], below 50%; under setting [5], below 50%; under setting [6], below 50%.
Turning to `COc1ccc(CN2CCc3n[nH]c4nc(NCc5ccccc5Cl)nc2c34)cc1` [Compound 112, N-(2-chlorobenzyl)-6-(4-methoxybenzyl)-2,6,7,8-tetrahydro-1,2,3,5,6-pentaazaacenaphthylen-4-amine], the inhibition at 10 µM under setting [1] is above 79%; the inhibition at 10 µM under setting [2] was above 79%; the inhibition at 10 µM under setting [3] is above 79%; the inhibition at 10 µM under setting [4] is below 50%; the inhibition at 10 µM under setting [5] was above 79%; the inhibition at 10 µM under setting [6] was above 79%.
